From patent publication US6673791B2, “Non-nucleoside reverse transcriptase inhibitors” (Boehringer Ingelheim (Canada) Ltd., priority 2001, dated 2004)
Read-outs that look alike come from different tables or passages of the source.

How the values were obtained:
[1] = target: T1, Y188L mutant RT (HIV-1 RT) (Human immunodeficiency virus type 1 group M subtype B, UniProt P03366, Y787L); assay: biochemical
T1 construct: mutations that occur in the reverse transcriptase segment of the pol gene
Source text: (§1) Based upon testing of these compounds, as described below, it is known that they inhibit the RNA-dependent DNA polymerase activity of HIV-1 RT. […] Utilising the Reverse Transcriptase (RT) Assay described below, compounds can be tested for their ability to inhibit the RNA-dependent DNA polymerase activity of HIV-1 RT. Certain specific compounds described in the Examples which appear below, were so tested. The results of this testing appear in Table 4 as IC50 (nM) and Table 5 as EC50 (nM).
(§2) Reverse TranscriptASE (RT) Assays
(§3) The assays are as described in WO 01/96338A1, the contents of which are hereby incorporated herein. The results are listed in Tables 8 as IC50(nM) and EC50(nM).

[2] = target: T2, K103N/Y181C double mutant RT (HIV-1 RT) (Human immunodeficiency virus type 1 group M subtype B, UniProt P03366, K702N/Y780C); assay: biochemical
T2 construct: mutations that occur in the reverse transcriptase segment of the pol gene
Source text: as §1, §2, §3

[3] = target: T3, WT RT (HIV-1 RT) (Human immunodeficiency virus type 1 group M subtype B, UniProt P03366); assay: biochemical
T3 construct: mutations that occur in the reverse transcriptase segment of the pol gene
Source text: as §1, §2, §3

[4] = target: T4, V106A mutant RT (HIV-1 RT) (Human immunodeficiency virus type 1 group M subtype B, UniProt P03366, V705A); assay: biochemical
T4 construct: mutations that occur in the reverse transcriptase segment of the pol gene
Source text: as §1, §2, §3

[5] = test system: WT RT (HIV-1 wild type strain); assay: EC50 assay, WT RT strain; assay type: cell-based
Source text: as §2, §3

[6] = test system: K103N/Y181C (HIV-1 double mutant strain); assay: EC50 assay, K103N/Y181C strain; assay type: cell-based
Source text: as §2, §3

[7] = Human immunodeficiency virus 1, read-out: EC50 WT RT (nM)
[8] = Human immunodeficiency virus 1, read-out: EC50 K103N/Y181C (nM), K103N/Y181C double mutant
[9] = read-out: IC50 K103N/Y181C, K103N/Y181C double mutant RT
[10] = read-out: IC50 WT RT, wild type RT
[11] = read-out: EC50 WT RT, wild type
[12] = read-out: EC50 K103N/Y181C, K103N/Y181C double mutant

SMILES | IC50 ([1]; IC50 Y188L (nM)) [nM] | IC50 [2] [nM] | IC50 [3] [nM] | IC50 ([4]; IC50 V106A (nM)) [nM] | EC50 [5, 7] [nM] | EC50 [6, 8] [nM] | IC50 ([1]; read-out: IC50 Y188L) [nM] | IC50 [2, 9] [nM] | IC50 [3, 10] [nM] | EC50 [5, 11] [nM] | EC50 [6, 12] [nM] | IC50 ([4]; read-out: IC50 V106A) [nM]
CCNC(=O)N1CCc2c(OCCc3cnc4c(c3)C(=O)N(C)c3cccnc3N4CC)ccc(C(=O)O)c2C1 [Entry 7006] | > 1000 | 100 to 1000 | < 100 | 100 to 1000 | 100 to 1000 | > 1000 |  |  |  |  |  | 
CCN1c2ncc(CCOc3cccc4c(S(=O)(=O)NCC(=O)O)cccc34)cc2C(=O)N(C)c2cccnc21 [Entry 2008] | 100 to 1000 | < 100 | < 100 | 100 to 1000 | 100 to 1000 | 100 to 1000 |  |  |  |  |  | 
CCN1c2ncc(CCOc3ccc(C(=O)O)c4c3CCCC4)cc2C(=O)N(C)c2ccc(C)nc21 [Entry 5004] | 100 to 1000 | 100 to 1000 | < 100 | > 1000 | < 100 | < 100 |  |  |  |  |  | 
CCN1c2ncc(CCOc3ccc(/C=C/C(=O)O)c4ccccc34)cc2C(=O)Nc2c(C)cc(Cl)nc21 [Entry 1030] | > 1000 | 100 to 1000 | < 100 | < 100 | < 100 | < 100 |  |  |  |  |  | 
CCN1c2ncc(CCOc3ccc(CC(C)C(=O)O)c4ccccc34)cc2C(=O)N(C)c2ccc(Cl)nc21 (stereo not drawn) [Entry 1044] | > 1000 | 100 to 1000 | < 100 | > 1000 | < 100 | < 100 |  |  |  |  |  | 
CCN1c2ncc(CCOc3ccc(C(C)CC(=O)O)c4ccccc34)cc2C(=O)N(C)c2cccnc21 (stereo not drawn) [Entry 1051] | > 1000 | 100 to 1000 | < 100 | > 1000 | < 100 | < 100 |  |  |  |  |  | 
CCN1c2ncc(CCOc3ccc(CCC(=O)O)c4ccccc34)cc2C(=O)N(C)c2ccc(F)nc21 [Entry 1023] | > 1000 | 100 to 1000 | < 100 | > 1000 | < 100 | < 100 |  |  |  |  |  | 
CCN1c2ncc(CCOc3ccc(C(=O)O)c4c3CCCC4)cc2C(=O)N(C)c2ccc(F)nc21 [Entry 5003] | 100 to 1000 | 100 to 1000 | < 100 | > 1000 | < 100 | < 100 |  |  |  |  |  | 
CCN1c2ncc(CCOc3ccc(CCC(=O)O)c4c3CCCC4)cc2C(=O)N(C)c2cccnc21 [Entry 5009] | > 1000 | 100 to 1000 | < 100 | > 1000 | < 100 | < 100 |  |  |  |  |  | 
CCN1c2ncc(CCOc3ccc(/C=C(\C)C(=O)O)c4ccccc34)cc2C(=O)N(C)c2ccc(C)nc21 [Entry 1038] | > 1000 | 100 to 1000 | < 100 | > 1000 | < 100 | < 100 |  |  |  |  |  | 
CCN1c2ncc(CCOc3ccc(CC(=O)NN)c4ccccc34)cc2C(=O)N(C)c2ccc(Cl)nc21 [Entry 1016] | 100 to 1000 | < 100 | < 100 | 100 to 1000 | < 100 | < 100 |  |  |  |  |  | 
CCN1c2ncc(CCOc3ccc(CC(=O)O)c4c3CCCC4)cc2C(=O)N(C)c2ccc(F)nc21 [Entry 5008] | > 1000 | 100 to 1000 | < 100 | > 1000 | < 100 | < 100 |  |  |  |  |  | 
CCN1c2ncc(CCOc3ccc(C(=O)O)c4c3CCN(C(=O)N(C)C)C4)cc2C(=O)N(C)c2cccnc21 [Entry 7007] | 100 to 1000 | < 100 | < 100 | 100 to 1000 | < 100 | < 100 |  |  |  |  |  | 
CCN1c2ncc(CCOc3ccc(/C=C/C(=O)O)c4ccccc34)cc2C(=O)Nc2c(C)cc(F)nc21 [Entry 1034] | > 1000 | 100 to 1000 | < 100 | < 100 | < 100 | < 100 |  |  |  |  |  | 
CCN1c2ncc(CCOc3ccc(CC(=O)NN)c4ccccc34)cc2C(=O)N(C)c2cccnc21 [Entry 1015] | 100 to 1000 | < 100 | < 100 | 100 to 1000 | < 100 | < 100 |  |  |  |  |  | 
CCN1c2ncc(CCOc3ccc(CC(C)C(=O)O)c4ccccc34)cc2C(=O)N(C)c2cccnc21 (stereo not drawn) [Entry 1042] | > 1000 | 100 to 1000 | < 100 | > 1000 | < 100 | < 100 |  |  |  |  |  | 
CCN1c2ncc(CCOc3ccc(/C(C)=C/C(=O)O)c4ccccc34)cc2C(=O)N(C)c2cccnc21 [Entry 1048] | > 1000 | 100 to 1000 | < 100 | > 1000 | < 100 | < 100 |  |  |  |  |  | 

SMILES | IC50 ([1]; IC50 Y188L (nM)) [nM] | IC50 [2] [nM] | IC50 [3] [nM] | IC50 ([4]; IC50 V106A (nM)) [nM] | EC50 [5, 7] [nM] | EC50 [6, 8] [nM] | IC50 ([1]; read-out: IC50 Y188L) [nM] | IC50 [2, 9] [nM] | IC50 [3, 10] [nM] | EC50 [5, 11] [nM] | EC50 [6, 12] [nM] | IC50 ([4]; read-out: IC50 V106A) [nM]
CCN1c2ncc(CCOc3ccc(C(=O)O)c4c3CCN(S(=O)(=O)N(C)C)C4)cc2C(=O)N(C)c2cccnc21 [Entry 7008] | 100 to 1000 | < 100 | < 100 | 100 to 1000 | < 100 | < 100 |  |  |  |  |  | 
CCN1c2ncc(CCOc3ccc(/C=C/C(=O)O)c4ccccc34)cc2C(=O)Nc2c(C)cc(Cl)nc21 [Entry 2018] |  |  |  | 100 to 1000 |  |  | > 1000 | 100 to 1000 | < 100 | < 100 | 100 to 1000 | 
CCN1c2ncc(CCOc3ccc(CC(=O)O)c4c3CCCC4)cc2C(=O)N(C)c2ccc(Cl)nc21 [Entry 5007] | 100 to 1000 | 100 to 1000 | < 100 | 100 to 1000 | < 100 | < 100 |  |  |  |  |  | 
CCN1c2ncc(CCOc3ccc(CC(=O)O)c4ccccc34)cc2C(=O)Nc2c(C)cc(Cl)nc21 [Entry 1012] | > 1000 | 100 to 1000 | < 100 | 100 to 1000 | < 100 | 100 to 1000 |  |  |  |  |  | 
C=C(CC(=O)O)c1ccc(OCCc2cnc3c(c2)C(=O)N(C)c2cccnc2N3CC)c2ccccc12 [Entry 1049] | > 1000 | 100 to 1000 | < 100 | > 1000 | < 100 | 100 to 1000 |  |  |  |  |  | 
CCN1c2ncc(CCOc3ccc4cc(C(=O)NC(C)(C)C(=O)O)ccc4c3)cc2C(=O)N(C)c2cccnc21 [Entry 3003] | > 1000 | 100 to 1000 | < 100 | 100 to 1000 | < 100 | 100 to 1000 |  |  |  |  |  | 
CCN1c2ncc(CCOc3ccc4cc(C(=O)NN)ccc4c3)cc2C(=O)N(C)c2cccnc21 [Entry 3002] | > 1000 | 100 to 1000 | < 100 | < 100 | < 100 | 100 to 1000 |  |  |  |  |  | 
CCN1c2ncc(CCOc3ccc(/C=C/C(=O)O)c4ccccc34)cc2C(=O)N(C)c2ccc(F)nc21 [Entry 2014] | > 1000 |  |  |  |  |  |  | 100 to 1000 | < 100 | < 100 | 100 to 1000 | 100 to 1000
CCN1c2ncc(CCOc3ccc4cc(CC(=O)NN)ccc4c3)cc2C(=O)N(C)c2cccnc21 [Entry 3005] | 100 to 1000 | 100 to 1000 | < 100 | < 100 | < 100 | < 100 |  |  |  |  |  | 
CCN1c2ncc(CCOc3ccc(C(=O)O)c4ccccc34)cc2C(=O)N(C)c2ccc(F)nc21 [Entry 1006] | > 1000 | 100 to 1000 | < 100 | > 1000 | < 100 | < 100 |  |  |  |  |  | 
CCN1c2ncc(CCOc3ccc(CCC(=O)O)c4ccccc34)cc2C(=O)Nc2c(C)cc(Cl)nc21 [Entry 1025] | > 1000 | 100 to 1000 | < 100 | 100 to 1000 | < 100 | 100 to 1000 |  |  |  |  |  | 
CCN1c2ncc(CCOc3ccc(/C=C/C(=O)O)c4ccccc34)cc2C(=O)N(C)c2cccnc21 [Entry 1028] | 100 to 1000 | 100 to 1000 | < 100 | > 1000 | < 100 | < 100 |  |  |  |  |  | 
CCN1c2ncc(CCOc3ccc(C(=O)O)c4ccccc34)cc2C(=O)Nc2c(C)cc(Cl)nc21 [Entry 1007] | > 1000 | 100 to 1000 | < 100 | 100 to 1000 | < 100 | < 100 |  |  |  |  |  | 
CCN1c2ncc(CCOc3ccc(/C=C/C(=O)O)c4ccccc34)cc2C(=O)Nc2c(C)ccnc21 [Entry 1031] | > 1000 | 100 to 1000 | < 100 | 100 to 1000 | < 100 | < 100 |  |  |  |  |  | 
CCN1c2ncc(CCOc3ccc(C(=O)O)c4c3CCN(C(=O)OC(C)(C)C)C4)cc2C(=O)N(C)c2cccnc21 [Entry 7003] | 100 to 1000 | 100 to 1000 | < 100 | > 1000 | < 100 | < 100 |  |  |  |  |  | 
CCN1c2ncc(CCOc3ccc(C(C)C(=O)O)c4ccccc34)cc2C(=O)N(C)c2cccnc21 (stereo not drawn) [Entry 1020] | > 1000 | 100 to 1000 | < 100 | > 1000 | < 100 | < 100 |  |  |  |  |  | 
